Data as given in ChEMBL document CHEMBL1128387, “Sigma ligands with subnanomolar affinity and preference for the sigma 2 binding site. 2. Spiro-joined benzofuran, isobenzofuran, and benzopyran piperidines” (J Med Chem, 1995).

Key:
[1] = target: Sigma non-opioid intracellular receptor 1 (Rattus norvegicus, UniProt Q9R0C9); test: Compound was evaluated for the binding affinity towards Sigma receptor type 1 using radioligand ([3H]-(+)- Pentazocine) binding assay.
[2] = target: Sigma intracellular receptor 2 (Rattus norvegicus, UniProt Q5U3Y7); test: Binding affinity towards Sigma receptor type 2 in whole rat brain homogenates except cerebellum using radioligand ([3H]DTG) binding assay.; assay type: tissue-based
Sigma intracellular receptor 2, sequence (Q5U3Y7 whole entry, looked up): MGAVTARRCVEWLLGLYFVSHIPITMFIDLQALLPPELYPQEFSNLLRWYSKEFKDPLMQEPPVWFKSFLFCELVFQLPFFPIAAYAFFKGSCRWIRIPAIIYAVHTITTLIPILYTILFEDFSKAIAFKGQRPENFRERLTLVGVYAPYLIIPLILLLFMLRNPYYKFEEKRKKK

Sigma non-opioid intracellular receptor 1, sequence (Q9R0C9 whole entry): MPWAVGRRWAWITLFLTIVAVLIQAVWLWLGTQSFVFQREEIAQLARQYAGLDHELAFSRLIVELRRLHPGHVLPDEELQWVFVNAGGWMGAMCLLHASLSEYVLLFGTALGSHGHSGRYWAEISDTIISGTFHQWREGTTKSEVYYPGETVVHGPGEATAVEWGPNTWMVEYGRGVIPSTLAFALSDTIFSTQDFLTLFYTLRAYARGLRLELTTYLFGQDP

SMILES | IC50 [1] [nM] | IC50 [2] [nM]
Fc1ccc(-n2cc(CCCCN3CCC4(CC3)OCc3c(C(F)(F)F)cccc34)c3ccccc32)cc1 | 180 | 
Fc1ccc(-n2cc(CCCCN3CCC4(CC3)COc3ccccc3C4)c3ccccc32)cc1 | 200 | 
Fc1ccc(-n2cc(CCCCN3CCC4(CC3)SCc3ccccc34)c3ccccc32)cc1 | 35 | 
c1ccc2c(c1)COC21CCNCC1 | 630 | 11000
Fc1ccc(-n2cc(CCCCN3CCC4(CC3)Cc3ccccc3O4)c3ccccc32)cc1 | 360 | 
Fc1ccc(-n2cc(CCCCN3CCC4(CC3)OCc3cccc(F)c34)c3ccccc32)cc1 | 150 | 
CCN1CCC2(CC1)OCc1ccccc12 | 140 | 270
Fc1ccc(-n2cc(CCCCN3CCC4(CC3)Cc3ccccc3CO4)c3ccccc32)cc1 | 23 | 
Fc1ccc(-n2cc(CCCCN3CCC4(CC3)OCc3c(F)cccc34)c3ccccc32)cc1 | 290 | 
Fc1ccc(-n2cc(CCCCN3CCC4(CCOc5ccccc54)CC3)c3ccccc32)cc1 | 7 | 
c1ccc2c(c1)COC21CCN(CCCOC2CCCCC2)CC1 | 0.4 | 
Fc1ccc(-n2cc(CCCCN3CCC4(CC3)OCCc3ccccc34)c3ccccc32)cc1 | 53 | 
Fc1ccc(-n2cc(CCCCN3CCC4(CC3)COCc3ccccc34)c3ccccc32)cc1 | 3.4 | 
c1ccc(CN2CCC3(CCCc4ccccc43)CC2)cc1 |  | 12
Fc1ccc(-n2cc(CCCCN3CCC4(CC3)COc3ccccc34)c3ccccc32)cc1 | 3.8 | 
c1ccc2c(c1)COC21CCN(CCCCC2CCCCC2)CC1 | 1.5 | 
c1ccc(CCCCCN2CCC3(CC2)OCc2ccccc23)cc1 | 0.82 | 
c1ccc(CCN2CCC3(CC2)OCc2ccccc23)cc1 | 2.2 | 
CC(C)N1CCC2(CC1)OCc1ccccc12 | 31 | 49
c1ccc(CCCCN2CCC3(CC2)OCc2ccccc23)cc1 | 0.27 | 
c1ccc(CCCN2CCC3(CC2)OCc2ccccc23)cc1 | 0.56 | 
CCCN1CCC2(CC1)OCc1ccccc12 | 4.7 | 23
Cc1ccc2c(c1)COC21CCN(CCCCc2cn(-c3ccc(F)cc3)c3ccccc23)CC1 | 9.5 | 2.3
Fc1ccc(-n2cc(CCCCN3CCC4(CC3)Oc3ccccc3O4)c3ccccc32)cc1 | 430 | 
